Assay results published in paper PMC11203978, “Discovery of Di(het)arylmethane and Dibenzoxanthene Derivatives as Potential Anticancer Agents” (International Journal of Molecular Sciences, 2024).
Read-outs that look alike come from different tables or passages of the source.

How the values were obtained:
[1] = tested on: HuTu 80 cells; assay: Mitochondrial membrane potential, JC-10 flow cytometry; format: cell-based, human; conditions: 24 h treatment, IC50/2 and IC50
Method: In this study, we used the fluorescent dye JC-10 from the Mitochondria Membrane Potential Kit (Sigma, St. Louis, MO, USA). Changes in mitochondrial membrane potential under the influence of lead compounds 5a and 6a were determined at IC50/2 and IC50 concentrations on the HuTu 80 cell line. When JC-10 accumulates in the mitochondrial matrix, it forms fluorescent J-aggregates. Their red fluorescence is characteristic for normal cells with high mitochondrial membrane potential. The reduction in mitochondrial membrane potential in apoptotic cells allows JC-10 to escape out of the mitochondria in a monomeric form which has green fluorescence. The mitochondrial membrane potential of HuTu 80 cells is decreased after 24 h treatment with the lead compounds 5a and 6a. The change becomes more pronounced as the concentrations of the tested compounds approach IC50 (Figure 7).
(§1) Cell Culture. HuTu 80 cells at 1 × 10^6 cells/well in a final volume of 2 mL were seeded into six-well plates. After 48 h of incubation, various concentrations of lead compounds were added to wells.
Mitochondrial Membrane Potential. […] After the cells were rinsed three times and suspended in PBS, the JC-10 fluorescence was observed using flow cytometry (Guava easy Cyte, MERCK, Rahway, NJ, USA).

[2] = tested on: HuTu 80; assay: MTT cytotoxicity, HuTu 80; format: cell-based, human; conditions: for IC50: MTT, 48 h incubation, read-out: IC50 (µM) Cancer Cell Lines HuTu 80
Source text: (§2) Cells and Materials. For the experiments, we used tumor cell cultures M-HeLa clone 11 (epithelioid carcinoma of the cervix, subline HeLa, clone M-HeLa), HuTu 80, human duodenal adenocarcinoma, Hep-2, human epithelial cells, SH-SY5Y, human neuroblast-like cells, A549, human lung adenocarcinoma, PA-1, human ovarian teratocarcinoma and MCF-7, a human mammary ductal adenocarcinoma from the collection of the Institute of Cytology, Russian Academy of Sciences (St. Petersburg, Russia); human liver cells (Chang liver) were from the collection and the Research Institute of Virology of the Russian Academy of Medical Sciences (Moscow, Russia).
(§3) MTT Assay. The cytotoxic effect on cells was determined using the colorimetric method of cell proliferation—the MTT test. NADP-H-dependent cellular oxidoreductase enzymes can, under certain conditions, reflect the number of viable cells. These enzymes reduce the tetrazolium dye (MTT) 3-(4,5-dimethylthiazol-2-yl)-2,5-diphenyl-tetrazolium bromide to insoluble blue-violet formazan, which crystallizes inside the cell. The amount of formed formazan is proportional to the number of cells with active metabolism. Cells were seeded on a 96-well Nunc plate at a concentration of 5 × 10^3 cells per well in a volume of 100 μL of medium and cultured in a CO2 incubator at 37 °C until a monolayer was formed. After the nutrient medium was removed, 100 µL of the test drug solutions at the given dilutions were added to the wells, which were prepared directly in the nutrient medium with the addition of 5% DMSO to improve solubility. After 48 h of incubation of the cells with the tested compounds, the nutrient medium was removed from the plates and 100 µL of the nutrient medium without serum with MTT at a concentration of 0.5 mg/mL was added and incubated for 4 h at 37 °C. Formazan crystals were added 100 µL of DMSO to each well. Optical density was recorded at 540 nm on an Invitrologic microplate reader (Novosibirsk, Russia). The experiments for all compounds were repeated three times.
(§4) Statistical analysis. The IC50 values were calculated using the MLA–Quest Graph™ IC50 Calculator (AAT Bioquest, Inc., Sunnyvale, CA, USA), 14 February 2022. Statistical analysis was performed with the Mann–Whitney test (p < 0.05). Tabular and graphical data contain averages and standard error.

[3] = tested on: Chang Liver; assay: MTT cytotoxicity, normal Chang liver cells; format: cell-based, human; conditions: Homo sapiens, Chang liver, 48 h incubation, read-out: IC50 (µM) Normal Cell Line Chang Liver
Source text: as §2, §3, §4

[4] = tested on: A549; assay: MTT cytotoxicity, A549; format: cell-based; conditions: Homo sapiens, read-out: IC50 (µM) Cancer Cell Lines A549
Source text: as §2
(§5) MTT Assay. The cytotoxic effect on cells was determined using the colorimetric method of cell proliferation—the MTT test. NADP-H-dependent cellular oxidoreductase enzymes can, under certain conditions, reflect the number of viable cells. These enzymes reduce the tetrazolium dye (MTT) 3-(4,5-dimethylthiazol-2-yl)-2,5-diphenyl-tetrazolium bromide to insoluble blue-violet formazan, which crystallizes inside the cell. The amount of formed formazan is proportional to the number of cells with active metabolism. […] Optical density was recorded at 540 nm on an Invitrologic microplate reader (Novosibirsk, Russia). […]
(§6) Statistical analysis. The IC50 values were calculated using the MLA–Quest Graph™ IC50 Calculator (AAT Bioquest, Inc., Sunnyvale, CA, USA), 14 February 2022. […]

[5] = tested on: MCF-7; assay: MTT cytotoxicity, MCF-7; format: cell-based; conditions: Homo sapiens, MCF7, read-out: IC50 (µM) Cancer Cell Lines MCF-7
Source text: as §2, §5, §6

[6] = tested on: PA-1; assay: MTT cytotoxicity, PA-1; format: cell-based; conditions: Homo sapiens, read-out: IC50 (µM) Cancer Cell Lines PA-1
Source text: as §2, §5, §6

[7] = tested on: HuTu 80 cells; assay: Induction of apoptosis, flow cytometry (annexin V-Alexa Fluor 647 / propidium iodide); format: cell-based, human; conditions: IC50/2 and IC50, 24 h
Method: The ability of the new compounds, proposed as antitumor agents, to induce cell death via apoptosis is a critical feature for their potential use in therapy. The apoptosis-inducing effects of lead compounds were investigated using flow cytometry at IC50/2 and IC50 concentrations on the HuTu 80 cell line (Figure 6A).
as §1
Cell Apoptosis Analysis. The cells were harvested at 2000 rpm for 5 min and were then washed twice with ice-cold PBS, and resuspended in binding buffer. Next, the samples were incubated with 5 μL of annexin V-Alexa Fluor 647 (Sigma-Aldrich, St Louis, MO, USA) and 5 μL of propidium iodide for 15 min at room temperature in the dark. Finally, the cells were analyzed using flow cytometry (Guava easy Cyte, MERCK, Rahway, NJ, USA) within 1 h. The experiments were repeated three times.

[8] = tested on: HuTu 80 cells; assay: Intracellular ROS, CellROX Deep Red flow cytometry; format: cell-based, human; conditions: IC50/2 and IC50
Method: The apoptosis via the mitochondrial pathway also increases the production of reactive oxygen species (ROS). As mitochondria itself becomes the target of ROS, an increase in their production disrupts mitochondrial functions and culminates in irreversible cell damage. Therefore, the effect of lead compounds 6a and 5a at IC50/2 and IC50 concentrations on ROS production in HuTu 80 cells was evaluated using flow cytometry. […] Such an effect is not observed for intact cells in the presence of both compounds, indicating an increase in ROS production in cancer tissues.
Detection of Intracellular ROS. HuTU 80 cells were incubated with lead compounds at concentrations of IC50/2 and IC50 for 48 h. ROS generation was investigated using flow cytometry assay and CellROX® Deep Red flow cytometry kit. For this purpose, […] cells were harvested at 2000 rpm for 5 min and then washed twice with ice-cold PBS, followed by resuspension in 0.1 mL of medium without FBS, to which was added 0.2 μL of CellROX® Deep Red, which was followed by incubation at 37 °C for 30 min. The cells were washed three times and suspended in PBS. After that, the production of ROS in the cells was immediately monitored using flow cytometer (Guava easy Cyte, MERCK, Rahway, NJ, USA).

[9] = tested on: SH-SY5Y; assay: MTT cytotoxicity, SH-SY5Y; format: cell-based; conditions: Homo sapiens, read-out: IC50 (µM) Cancer Cell Lines SH-SY5Y
Source text: as §2, §5, §6

[10] = tested on: Hep-2; assay: MTT cytotoxicity, Hep-2; format: cell-based; conditions: Homo sapiens, read-out: IC50 (µM) Cancer Cell Lines Hep-2
Source text: as §2, §5, §6

[11] = tested on: M-HeLa; assay: MTT cytotoxicity, M-HeLa; format: cell-based, human; conditions: Homo sapiens, M-HeLa; MTT, 48 h incubation; read-out: IC50 (µM) Cancer Cell Lines M-HeLa
Source text: as §2, §3, §4

SMILES: Cc1cc(O)c(C(CCNC(=O)CCl)c2c(O)cc(C)oc2=O)c(=O)o1 [Compound 5a]
- mitochondrial membrane potential (in words) [1]: decreased
- IC50 ([2]; Homo sapiens, HuTu80, 48 h): 1.7 µM
- times more effective / more cytotoxic than the reference drug sorafenib ([2]; HuTu 80): 1.7
- IC50 [2]: 1.9 ± 0.2 µM
- IC50 [3]: 139 ± 11 µM
- IC50 [4]: 82.1 ± 3.56 µM
- IC50 [5]: 85.6 ± 3.12 µM
- IC50 [6]: 80.2 ± 4.05 µM
- apoptosis-inducing effect (in words) [7]: apoptotic effects increase at the early apoptosis stage
- ROS production, CellROX Deep Red fluorescence intensity (in words) [8]: significant reliable increase
- IC50 [9]: 75.8 ± 2.84 µM
- IC50 [10]: 65.8 ± 1.18 µM
- IC50 [11]: 56.2 ± 4.7 µM
